{
  "source": "patent US20030130272A1",
  "about": "“Anthracene derivatives as anti-cancer agents” (priority 1999, published 2003)",
  "key": {"MAC 15A cells": {"test_system": "MAC 15A cells", "assay": "In vitro activity against MAC 15A adenocarcinoma (MTT assay)", "assay_type": "cell-based", "conditions": "MAC15A colon adenocarcinoma, 96 hours continuous exposure", "method": "MAC 15A cells were grown in RPMI 1640 medium supplemented with 10% foetal calf serum containing a 1% antibiotic mixture under standard tissue culture conditions and were maintained at 37° C. in a humidified atmosphere of 5% CO2 in air. Cells were harvested from a stock culture in exponential growth phase and plated in 96-well flat-bottomed plates to achieve a final density of 2×10^3 cells per well. After 2 hours incubation medium was replaced with either fresh medium containing 0.5% DMSO (control) or medium containing test compound dissolved in DMSO at a concentrations from 10 mM to 1 nM. Chemosensitivity was assessed using MTT assay by the method of Plumb et al Cancer Research 49 (1989) 4435-4440.\nFollowing 96 hours continuous exposure to drug at 37° C. cells were incubated with fresh drug-free medium immediately prior to addition of MTT solution (5 mg/ml). Medium and MTT were removed after 4 hours and 150 μl of DMSO was added. For each plate the absorbance of the resulting solution was measured at the analytical wavelength 550 nm for formnazan product, using a Labsystem Mutiskan. IC50 values were obtained from growth curves of drug concentration against % survival and are expressed in μm.\nIn vitro Cytotoxicity of Spacer Limked Anthraquinone Peptide Conjugates on MAC15A Colon Adenocarcinoma"}, "topo I": {"target": "T1, topo I (Homo sapiens, UniProt P11387)", "T1 sequence (P11387 1-765)": "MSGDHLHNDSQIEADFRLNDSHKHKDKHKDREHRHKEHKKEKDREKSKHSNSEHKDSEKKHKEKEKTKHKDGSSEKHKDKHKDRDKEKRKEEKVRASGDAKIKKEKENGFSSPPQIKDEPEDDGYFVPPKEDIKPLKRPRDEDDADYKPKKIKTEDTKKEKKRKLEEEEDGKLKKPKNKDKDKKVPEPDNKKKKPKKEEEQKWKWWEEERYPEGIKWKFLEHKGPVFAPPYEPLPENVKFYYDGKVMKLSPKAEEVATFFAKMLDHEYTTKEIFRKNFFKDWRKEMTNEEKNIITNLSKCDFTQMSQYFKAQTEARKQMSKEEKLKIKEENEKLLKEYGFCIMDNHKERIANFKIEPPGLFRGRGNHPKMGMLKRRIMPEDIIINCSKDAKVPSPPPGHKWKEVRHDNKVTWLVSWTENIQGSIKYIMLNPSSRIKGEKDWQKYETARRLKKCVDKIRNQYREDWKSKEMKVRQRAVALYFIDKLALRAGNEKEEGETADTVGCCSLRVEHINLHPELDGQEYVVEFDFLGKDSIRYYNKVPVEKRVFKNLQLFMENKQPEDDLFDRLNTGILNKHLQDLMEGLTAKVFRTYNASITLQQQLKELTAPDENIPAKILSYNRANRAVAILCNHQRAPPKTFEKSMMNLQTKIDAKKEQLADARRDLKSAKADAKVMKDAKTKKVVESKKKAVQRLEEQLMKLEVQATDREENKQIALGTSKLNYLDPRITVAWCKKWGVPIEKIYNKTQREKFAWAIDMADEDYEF", "assay": "Inhibition of topoisomerase I mediated relaxation of pBR322 DNA", "assay_type": "biochemical"}},
  "note": "Counter-ions that a name gives are not always drawn.",
  "data": [
    {"compound": "CC(C)[C@@H](N)C(=O)NC1CCC(Nc2cccc3c2C(=O)c2ccccc2C3=O)CC1", "note": "(stereo partly drawn) [Example 38, (2R)-2-amino-N-{4-[(9,10-dioxoanthryl)amino]cyclohexyl}-3-methylbutanamide trifluoroacetate salt]", "values": [
      {"measurement": "IC50", "setting": "MAC 15A cells", "value": 4.2, "unit": "µM"}
    ]},
    {"compound": "O=C1c2ccccc2C(=O)c2c(NC3CCC(NC(=O)[C@@H]4CCCN4)CC3)cccc21", "note": "(stereo partly drawn) [Example 40, ((2S)pyrrolidin-2-yl)-N-{4-[(9,10-dioxoanthryl)amino]cyclohexyl}-carboxamide trifluoroacetate salt]", "values": [
      {"measurement": "IC50", "setting": "MAC 15A cells", "value": 4.2, "unit": "µM"}
    ]},
    {"compound": "CC(C)[C@H](N)C(=O)NC1CCC(Nc2cccc3c2C(=O)c2ccccc2C3=O)CC1", "note": "(stereo partly drawn) [Example 36, (2S)-2-amino-N-{4-[(9,10-dioxoanthryl)amino]cyclohexyl}-3-methylbutanamide trifluoroacetate salt]", "values": [
      {"measurement": "IC50", "setting": "MAC 15A cells", "value": 4.5, "unit": "µM"}
    ]},
    {"compound": "C[C@@H](N)C(=O)NC1CCC(Nc2cccc3c2C(=O)c2ccccc2C3=O)CC1", "note": "(stereo partly drawn) [Example 34, (2R)-2-amino-N-{4-[(9,10-dioxoanthryl)amino]cyclohexyl}propanamide trifluoroacetate salt]", "values": [
      {"measurement": "IC50", "setting": "MAC 15A cells", "value": 3.9, "unit": "µM"}
    ]},
    {"compound": "((2S)pyrrolidine-2-yl)-N-[3-(4-{3-[(9,10-dioxoanthryl)amino]propyl}-piperazinyl)propyl]carboxamide trifluoroacetate salt [Example 57]", "values": [
      {"measurement": "DNA-topoisomerase activity: inhibition of topo I relaxation", "setting": "topo I; at 25 μM", "value": "PARTIAL inhibition"},
      {"measurement": "DNA-topoisomerase activity: inhibition of topo I relaxation", "setting": "topo I; at 50 μM", "value": "COMPLETE"},
      {"measurement": "IC50", "setting": "MAC 15A cells", "value": 4.6, "unit": "µM"}
    ]},
    {"compound": "N[C@H](Cc1ccccc1)C(=O)NCCCN1CCN(CCCNc2cccc3c2C(=O)c2ccccc2C3=O)CC1", "note": "[Example 61, (2R)-2-amino-N-[3-(4-{3-[(9,10-dioxoanthryl)amino]propyl}-piperazinyl)propyl]-3-phenylpropanamide trifluoroacetate salt]", "values": [
      {"measurement": "IC50", "setting": "MAC 15A cells", "value": 3.8, "unit": "µM"}
    ]},
    {"compound": "NCC(=O)NC1CCC(Nc2cccc3c2C(=O)c2ccccc2C3=O)CC1", "note": "(centres unmarked) [Example 30, 2-amino-N-{4-[(9,10-dioxoanthryl)amino]cyclohexyl}acetamide trifluoroacetate salt]", "values": [
      {"measurement": "IC50", "setting": "MAC 15A cells", "value": 6, "unit": "µM"}
    ]},
    {"compound": "CC(C)[C@H](N)C(=O)NCCCN1CCN(CCCNc2cccc3c2C(=O)c2ccccc2C3=O)CC1.O=C(O)C(F)(F)F", "note": "[Example 55, (2S)-2-amino-N-[3-(4-{3-[(9,10-dioxoanthryl)amino]propyl}-piperazinyl)propyl]-3-methylbutanamide trifluoroacetate salt]", "values": [
      {"measurement": "DNA-topoisomerase activity: inhibition of topo I relaxation", "setting": "topo I; at 25 μM", "value": "PARTIAL inhibition"},
      {"measurement": "DNA-topoisomerase activity: inhibition of topo I relaxation", "setting": "topo I; at 50 μM", "value": "COMPLETE"}
    ]},
    {"compound": "C[C@H](N)C(=O)NC1CCCCC1Nc1cccc2c1C(=O)c1ccccc1C2=O.O=C(O)C(F)(F)F", "note": "(stereo partly drawn) [Example 66, (2S)-2-amino-N-{2-[(9,10-dioxoanthryl)amino]cyclohexyl}propanamide trifluoroacetate salt]", "values": [
      {"measurement": "DNA-topoisomerase activity: inhibition of topo I relaxation", "setting": "topo I; at 10 μM", "value": "COMPLETE inhibition at 10 μM; concentrations"},
      {"measurement": "DNA-topoisomerase activity: inhibition of topo I relaxation", "setting": "topo I; concentrations above 10 μM", "value": "above this value antagonised inhibitory activity"},
      {"measurement": "IC50", "setting": "MAC 15A cells", "value": 6.7, "unit": "µM"}
    ]},
    {"compound": "C[C@@H](N)C(=O)NCCCN1CCN(CCCNc2cccc3c2C(=O)c2ccccc2C3=O)CC1", "note": "[Example 53, (2R)-2-amino-N-[3-(4-{3-[(9,10-dioxoanthryl)amino]propyl}-piperazinyl)propyl]propanamide trifluoroacetate salt]", "values": [
      {"measurement": "IC50", "setting": "MAC 15A cells", "value": 4.9, "unit": "µM"}
    ]},
    {"compound": "N[C@@H](Cc1ccc(O)cc1)C(=O)NCCCN1CCN(CCCNc2cccc3c2C(=O)c2ccccc2C3=O)CC1.O=C(O)C(F)(F)F", "note": "[Example 63, (2S)-2-amino-N-[3-(4-{3-[(9,10-dioxoanthryl)amino]propyl}-piperazinyl)propyl]-3-(4-hydroxyphenyl)propanamide trifluoroacetate salt]", "values": [
      {"measurement": "DNA-topoisomerase activity: inhibition of topo I relaxation", "setting": "topo I; at 25 μM", "value": "PARTIAL inhibition"},
      {"measurement": "DNA-topoisomerase activity: inhibition of topo I relaxation", "setting": "topo I; at 50 μM", "value": "COMPLETE"}
    ]},
    {"compound": "O=C1c2ccccc2C(=O)c2c1cccc2N1CCC[C@H]1C(=O)O", "note": "[Example 6, (2S)-1-(9,10-dioxoanthryl)prrolidine-2-carboxylic acid]", "values": [
      {"measurement": "DNA-topoisomerase activity: inhibition of topo I relaxation", "setting": "topo I; at 100 μM", "value": "PARTIAL inhibition at 100 μM"}
    ]},
    {"compound": "N[C@@H](Cc1ccc(Cl)cc1)C(=O)NC1CCC(Nc2cccc3c2C(=O)c2ccccc2C3=O)CC1", "note": "(stereo partly drawn) [Example 94, (2S)-2-amino-N-{4-[(9,10-dioxoanthryl)amino]cyclohexyl}-3-(4-chlorophenyl)propanamide trifluoroacetate salt]", "values": [
      {"measurement": "IC50", "setting": "MAC 15A cells", "value": 1, "unit": "µM"}
    ]},
    {"compound": "N[C@@H](Cc1ccccc1Cl)C(=O)NC1CCC(Nc2cccc3c2C(=O)c2ccccc2C3=O)CC1", "note": "(stereo partly drawn) [Example 44, (2S)-2-amino-N-{4-[(9,10-dioxoanthryl)amino]cyclohexyl}-3-(2-chlorophenyl)propanamide trifluoroacetate salt]", "values": [
      {"measurement": "IC50", "setting": "MAC 15A cells", "value": 3, "unit": "µM"}
    ]},
    {"compound": "C[C@H](N)C(=O)OC1CCN(c2cccc3c2C(=O)c2ccccc2C3=O)CC1.O=C(O)C(F)(F)F", "note": "[Example 11, 1-(9,10-dioxoanthryl)-4-piperidyl-(2S)-2-aminopropanoate trifluoroacetate salt]", "values": [
      {"measurement": "DNA-topoisomerase activity: inhibition of topo I relaxation", "setting": "topo I; between 25-100 μM", "value": "NO inhibition between 25-100 μM"},
      {"measurement": "IC50", "setting": "MAC 15A cells", "value": 14, "unit": "µM"}
    ]},
    {"compound": "C[C@H](N)C(=O)NC1CCC(Nc2cccc3c2C(=O)c2ccccc2C3=O)CC1", "note": "(stereo partly drawn) [Example 32, (2S)-2-amino-N-{4-[(9,10-dioxoanthryl)amino]cyclohexyl}propanamide trifluoroacetate salt]", "values": [
      {"measurement": "IC50", "setting": "MAC 15A cells", "value": 4.4, "unit": "µM"}
    ]},
    {"compound": "C[C@H](NC(=O)OC(C)(C)C)C(=O)N1CCN(c2cccc3c2C(=O)c2ccccc2C3=O)CC1", "note": "[Example 16, 1-(1-N-tertiarybutoxycarbonyl-L-alanylpiperazinyl)anthracene-9,10-dione]", "values": [
      {"measurement": "DNA-topoisomerase activity: inhibition of topo I relaxation", "setting": "topo I; between 25-100 μM", "value": "NO inhibition between 25-100 μM"}
    ]},
    {"compound": "N[C@H](Cc1ccccc1Cl)C(=O)NC1CCC(Nc2cccc3c2C(=O)c2ccccc2C3=O)CC1", "note": "(stereo partly drawn) [Example 46, (2R)-2-amino-N-{4-[(9,10-dioxoanthryl)amino]cyclohexyl}-3-(2-chloro-phenyl)propanamide trifluoroacetate salt]", "values": [
      {"measurement": "IC50", "setting": "MAC 15A cells", "value": 4.1, "unit": "µM"}
    ]},
    {"compound": "C[C@H](N)C(=O)OC[C@@H]1CCCN1c1cccc2c1C(=O)c1ccccc1C2=O", "note": "[Example 13, [(2S)]-1-(9,10-dioxoanthryl)pyrrolidin-2-yl]methyl (2S)-2-aminopropanoate trifluoroacetate salt]", "values": [
      {"measurement": "IC50", "setting": "MAC 15A cells", "value": 22, "unit": "µM"}
    ]},
    {"compound": "C[C@H](N)C(=O)N1CCN(c2cccc3c2C(=O)c2cccc(N4CCN(C(=O)[C@H](C)N)CC4)c2C3=O)CC1", "note": "[Example 23, 1,5-bis(1-L-alanylpiperazinyl)anthracene-9,10-dione trifluoroacetate salt]", "values": [
      {"measurement": "IC50", "setting": "MAC 15A cells", "value": 15, "unit": "µM"}
    ]},
    {"compound": "NCC(=O)Nc1ccc(Nc2cccc3c2C(=O)c2ccccc2C3=O)cc1", "note": "[Example 70, 2-amino-N-{4-[(9,10-dioxoanthryl)amino]phenyl}acetamide trifluoroacetate salt]", "values": [
      {"measurement": "IC50", "setting": "MAC 15A cells", "value": 2.2, "unit": "µM"}
    ]},
    {"compound": "NCCCC[C@H](N)C(=O)N1CCN(c2cccc3c2C(=O)c2ccccc2C3=O)CC1", "note": "[Example 79, 1-[4-((2S)-2-6-diaminohexanoyl)piperazinyl]anthracene-9,10-dione bis trifluoroacetate salt]", "values": [
      {"measurement": "IC50", "setting": "MAC 15A cells", "value": 28, "unit": "µM"}
    ]},
    {"compound": "NCC(=O)NCCCN1CCN(CCCNc2cccc3c2C(=O)c2ccccc2C3=O)CC1.O=C(O)C(F)(F)F.O=C(O)C(F)(F)F.O=C(O)C(F)(F)F", "note": "[Example 49, 2-amino-N-[3-(4-{3-[(9,10-dioxoanthryl)amino]propyl}piperazinyl)-propyl]acetamide tri-trifluoroacetate salt]", "values": [
      {"measurement": "DNA-topoisomerase activity: inhibition of topo I relaxation", "setting": "topo I; at 25 μM", "value": "PARTIAL inhibition"},
      {"measurement": "DNA-topoisomerase activity: inhibition of topo I relaxation", "setting": "topo I; at 50 μM", "value": "COMPLETE"}
    ]},
    {"compound": "NCCC(=O)NC1CCCCC1Nc1cccc2c1C(=O)c1ccccc1C2=O", "note": "(centres unmarked) [Example 68, 3-amino-N-{2-[(9,10-dioxoanthryl)amino]cyclohexyl}propanamide trifluoroacetate salt]", "values": [
      {"measurement": "IC50", "setting": "MAC 15A cells", "value": 6.2, "unit": "µM"}
    ]}
  ]
}
